Assay results from ChEMBL document CHEMBL1275564, “Minimal pharmacokinetic interaction between the human immunodeficiency virus nonnucleoside reverse transcriptase inhibitor etravirine and the integrase inhibitor raltegravir in healthy subjects” (Antimicrob Agents Chemother, 2008).

What was measured:
Type in all cases: ADME, organism-based
[1] = Tmax in healthy human plasma at 200 mg, po twice a day for 4 days coadministered with 400 mg of raltegravir, po twice a day for 4 days by reverse-phase HPLC-MS method
[2] = Trough drug concentration at 12 hrs in healthy human plasma at 200 mg, po twice a day for 8 days by reverse-phase HPLC-MS method; conditions: read-out: Cmin
[3] = system: Homo sapiens; experiment: AUC (0 to 12 hrs) in healthy human plasma at 200 mg, po twice a day for 8 days by reverse-phase HPLC-MS method; set-up: time < 12 hr, dose 200 mg, route oral; conditions: in vivo
[4] = Cmax in healthy human plasma at 200 mg, po twice a day for 8 days by reverse-phase HPLC-MS method; set-up: dose 200 mg, route oral
[5] = Trough drug concentration at 12 hrs in healthy human plasma at 200 mg, po twice a day for 4 days coadministered with 400 mg of raltegravir, po twice a day for 4 days by reverse-phase HPLC-MS method; conditions: read-out: Cmin
[6] = Cmax in healthy human plasma at 200 mg, po twice a day for 4 days coadministered with 400 mg of raltegravir, po twice a day for 4 days by reverse-phase HPLC-MS method; set-up: dose 200 mg, route oral
[7] = Tmax in healthy human plasma at 200 mg, po twice a day for 8 days by reverse-phase HPLC-MS method
[8] = system: Homo sapiens; experiment: AUC (0 to 12 hrs) in healthy human plasma at 200 mg, po twice a day for 4 days coadministered with 400 mg of raltegravir, po twice a day for 4 days by reverse-phase HPLC-MS method; set-up: time < 12 hr, dose 200 mg, route oral; conditions: in vivo
[9] = Trough drug concentration at 12 hrs in healthy human plasma at 400 mg, po twice a day for 4 days by reverse-phase HPLC-MS method; conditions: read-out: Cmin
[10] = AUC (0 to 12 hrs) in healthy human plasma at 400 mg, po twice a day for 4 days by reverse-phase HPLC-MS method; set-up: dose 400 mg, time < 12 hr, route oral
[11] = AUC (0 to 12 hrs) in healthy human plasma at 400 mg, po twice a day for 4 days coadministered with 200mg of etravirine twice a day for 4 days by reverse-phase HPLC-MS method; set-up: time < 12 hr, dose 400 mg, route oral
[12] = Cmax in healthy human plasma at 400 mg, po twice a day for 4 days by reverse-phase HPLC-MS method; set-up: dose 400 mg, route oral
[13] = Trough drug concentration at 12 hrs in healthy human plasma at 400 mg, po twice a day for 4 days coadministered with 200mg of etravirine twice a day for 4 days by reverse-phase HPLC-MS method; conditions: read-out: Cmin
[14] = Tmax in healthy human plasma at 400 mg, po twice a day for 4 days by reverse-phase HPLC-MS method
[15] = Tmax in healthy human plasma at 400 mg, po twice a day for 4 days coadministered with 200mg of etravirine twice a day for 4 days by reverse-phase HPLC-MS method
[16] = Cmax in healthy human plasma at 400 mg, po twice a day for 4 days coadministered with 200mg of etravirine twice a day for 4 days by reverse-phase HPLC-MS method; set-up: dose 400 mg, route oral

| Tmax [1] [h] | concentration at 12 h [2] [ng/mL] | AUC [3] [ng·h/mL] | Cmax [4] [ng/mL] | concentration at 12 h [5] [ng/mL] | Cmax [6] [ng/mL] | Tmax [7] [h] | AUC [8] [ng·h/mL] | concentration at 12 h [9] [nM] | AUC at 12 h [10] [µM·h] | AUC at 12 h [11] [µM·h] | Cmax [12] [nM] | concentration at 12 h [13] [nM] | Tmax [14] [h] | Tmax [15] [h] | Cmax [16] [nM] | Compound |
| --- | --- | --- | --- | --- | --- | --- | --- | --- | --- | --- | --- | --- | --- | --- | --- | --- |
| 4 | 373 | 6220 | 734 | 439 | 766 | 4 | 6810 |  |  |  |  |  |  |  |  | Cc1cc(C#N)cc(C)c1Oc1nc(Nc2ccc(C#N)cc2)nc(N)c1Br [ETRAVIRINE] |
|  |  |  |  |  |  |  |  | 216 | 7.01 | 6.28 | 1740 | 142 | 1.5 | 3 | 1540 | Cc1nnc(C(=O)NC(C)(C)c2nc(C(=O)NCc3ccc(F)cc3)c(O)c(=O)n2C)o1 [RALTEGRAVIR] |
